Here are results for 28 molecules from patent US11667649B2, “Heteroaromatic macrocyclic ether chemotherapeutic agents” (Nuvalent, Inc., priority 2020, dated 2023).

Some results are limits rather than exact numbers.

For one assay, the target named is T1, ALK-wt kinase domain (Homo sapiens, UniProt Q9UM73).
T1 construct: TRKA-wt (1 nM, BPS Bio, 40280) kinase domains in buffer; purchased Carna 08-518
Put plainly: Biochemical kinase assay, ALK-wt. The following applies: 2 mM ATP substrate solution, read-out: Ki^app ALK-wt. In short, it runs like this: (§1)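 Compound in DMSO added first, then substrate solution (ATP 2 mM; AQT0101 or AQT0104, 26 μM; pH 7.5 HEPES, 10 mM MgCl2), then kinase solution with enzyme at 0.5–3 nM depending on construct. Kinetic read every 2 min for 120 min at 30° C; Ki^app by Morrison regression.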

Assay [1] concerns the target T2, ALK L1196M/G1202R kinase domain (Homo sapiens, UniProt Q9UM73, G1202R/L1196M).
T2 construct: TRKA-wt (1 nM, BPS Bio, 40280) kinase domains in buffer; purchased SignalChem A19-12NG
Put plainly: Biochemical kinase assay, ALK L1196M/G1202R. The note with it: 2 mM ATP substrate solution, read-out: Ki^app ALK-L1196M-G1202R. The essentials: as §1

Another assay deals with T3, ROS1-wt kinase domain (Homo sapiens, UniProt P08922).
T3 construct: TRKA-wt (1 nM, BPS Bio, 40280) kinase domains in buffer; purchased Carna 08-163
Put plainly: Biochemical kinase assay, ROS1-wt. The following applies: 2 mM ATP substrate solution, read-out: Ki^app ROS1-wt. In short, it runs like this: as §1

The target in assay [2] is T4, ROS1-G2032R kinase domain (Homo sapiens, UniProt P08922, G2032R).
T4 construct: TRKA-wt (1 nM, BPS Bio, 40280) kinase domains in buffer; purchased SignalChem R14-12BG
Put plainly: Biochemical kinase assay, ROS1-G2032R. The following applies: 2 mM ATP substrate solution, read-out: Ki^app ROS1-G2032R. The essentials: as §1

Another assay deals with T5, TRKA-wt kinase domain (Homo sapiens, UniProt P04629).
T5 construct: TRKA-wt (1 nM, BPS Bio, 40280) kinase domains in buffer; purchased BPS Bio 40280
Nature of the assay: Biochemical kinase assay, TRKA-wt. The note with it: 2 mM ATP substrate solution, read-out: Ki^app TRKA-wt. In short, it runs like this: as §1

As to `CCn1nc2c(c1C#N)-c1cnc(N)c(c1)O[C@H](C)c1cc(F)ccc1-n1nccc1C2` [Compound 119], the Ki on ALK-wt kinase domain was < 50 nM; in assay [1], < 50 nM; on ROS1-wt kinase domain, < 50 nM; in assay [2], 50 to 500 nM; on TRKA-wt kinase domain, < 50 nM.
In the case of `CCc1noc2c1-c1cnc(N)c(c1)O[C@H](C)c1cc(F)ccc1-c1nncn1C2` [Compound 120], the Ki at ALK-wt kinase domain was < 50 nM; in assay [1] it was 50 to 500 nM; on ROS1-wt kinase domain it was < 50 nM; in assay [2], 50 to 500 nM; on TRKA-wt kinase domain, 50 to 500 nM.
For the molecule `C[C@H]1Oc2cc(cnc2N)-c2c(cnn2CC2CC2)Cc2cn(C)nc2-c2ccc(F)cc21` [Compound 121], the Ki at ALK-wt kinase domain was < 50 nM; in assay [1], < 50 nM; on ROS1-wt kinase domain, < 50 nM; in assay [2], < 50 nM; on TRKA-wt kinase domain, 50 to 500 nM.
Consider `C[C@H]1Oc2cc(cnc2N)-c2c(nnn2CC2CC2)Cc2cc(C(F)F)nn2-c2ccc(F)cc21` [Compound 122], for which the Ki is < 50 nM on ALK-wt kinase domain; < 50 nM in assay [1]; < 50 nM at ROS1-wt kinase domain; < 50 nM in assay [2]; 50 to 500 nM on TRKA-wt kinase domain.
With `C[C@H]1Oc2cc(cnc2N)-c2c(c(C#N)nn2CC2CC2)Cc2cccnc2-c2ccc(F)cc21` [Compound 123], the Ki on ALK-wt kinase domain is < 50 nM; in assay [1], < 50 nM; on ROS1-wt kinase domain it was < 50 nM; in assay [2], < 50 nM; at TRKA-wt kinase domain, > 500 nM.
Take `COc1cc2n(n1)-c1ccc(F)cc1[C@@H](C)Oc1cc(cnc1N)-c1c(c(C)nn1CC1CC1)C2` [Compound 124]: the Ki at ALK-wt kinase domain was < 50 nM; in assay [1], < 50 nM; on ROS1-wt kinase domain it was < 50 nM; in assay [2], < 50 nM; at TRKA-wt kinase domain it was 50 to 500 nM.
For the molecule `Cc1cc2n(n1)-c1ccc(F)cc1COc1cc(cnc1N)-c1c(cnn1CC1CC1)C2` [Compound 126], the Ki at ALK-wt kinase domain was < 50 nM; in assay [1] it was < 50 nM; at ROS1-wt kinase domain, < 50 nM; in assay [2] it was < 50 nM; on TRKA-wt kinase domain, > 500 nM.
In the case of `C[C@H]1Oc2cc(cnc2N)-c2c(nnn2CC2CC2)Cc2cc(C(F)(F)F)nn2-c2ccc(F)cc21` [Compound 128], the Ki on ALK-wt kinase domain was < 50 nM; in assay [1], < 50 nM; on ROS1-wt kinase domain, < 50 nM; in assay [2] it was < 50 nM; at TRKA-wt kinase domain, 50 to 500 nM.
For the molecule `C[C@H]1Oc2cc(cnc2N)-c2c(cnn2CC2CC2)Cc2cc(C(F)F)nn2-c2ccc(F)cc21` [Compound 130], the Ki at ALK-wt kinase domain is < 50 nM; in assay [1], < 50 nM; at ROS1-wt kinase domain it was < 50 nM; in assay [2], < 50 nM; at TRKA-wt kinase domain, 50 to 500 nM.
Turning to `C[C@H]1Oc2cc(cnc2N)-c2c(C#N)nn(C)c2Cc2cc(C(F)F)nn2-c2ccc(F)cc21` [Compound 132], the Ki at ALK-wt kinase domain was < 50 nM; in assay [1] it was < 50 nM; at ROS1-wt kinase domain, < 50 nM; in assay [2], < 50 nM; on TRKA-wt kinase domain it was 50 to 500 nM.
For `C[C@H]1Oc2cc(cnc2N)-c2c(c(Cl)nn2CC2CC2)Cc2cn(C)nc2-c2ccc(F)cc21` [Compound 133], the Ki was < 50 nM at ALK-wt kinase domain; < 50 nM in assay [1]; < 50 nM on ROS1-wt kinase domain; 50 to 500 nM in assay [2]; > 500 nM at TRKA-wt kinase domain.
On to `Cc1nc2c(s1)Cc1c(C)nn(CC3CC3)c1-c1cnc(N)c(c1)O[C@H](C)c1cc(F)ccc1-2` [Compound 134], for which the Ki at ALK-wt kinase domain was < 50 nM; in assay [1] it was < 50 nM; on ROS1-wt kinase domain, < 50 nM; in assay [2], < 50 nM; on TRKA-wt kinase domain, 50 to 500 nM.
On to `Cc1nn(CC2CC2)c2c1Cc1cccnc1-c1ccc(F)cc1[C@@H](C)Oc1cc-2cnc1N` [Compound 135], for which the Ki is < 50 nM on ALK-wt kinase domain; < 50 nM in assay [1]; < 50 nM at ROS1-wt kinase domain; < 50 nM in assay [2]; 50 to 500 nM on TRKA-wt kinase domain.
Take `C[C@H]1Oc2cc(cnc2N)-c2c(cnn2CC2CC2)Cc2cccnc2-c2ccc(F)cc21` [Compound 137]: the Ki at ALK-wt kinase domain was < 50 nM; in assay [1] it was < 50 nM; at ROS1-wt kinase domain, < 50 nM; in assay [2], < 50 nM; at TRKA-wt kinase domain it was 50 to 500 nM.
`Nc1ncc2cc1OCc1cc(F)ccc1-n1nc(C(F)F)cc1Cc1cnn(CC3CC3)c1-2` [Compound 138]: the Ki at ALK-wt kinase domain was < 50 nM; in assay [1], < 50 nM; at ROS1-wt kinase domain, < 50 nM; in assay [2] it was < 50 nM; at TRKA-wt kinase domain, > 500 nM.
With `C[C@H]1Oc2cc(cnc2N)-c2c(cnn2C2COC2)Cc2cn(C)nc2-c2ccc(F)cc21` [Compound 139], the Ki at ALK-wt kinase domain was < 50 nM; in assay [1] it was < 50 nM; on ROS1-wt kinase domain it was < 50 nM; in assay [2], < 50 nM; at TRKA-wt kinase domain it was 50 to 500 nM.
Regarding `CCn1cc2c(n1)-c1ccc(F)cc1[C@@H](C)Oc1cc(cnc1N)-c1c(cnn1CC1CC1)C2` [Compound 140], the Ki on ALK-wt kinase domain is < 50 nM; in assay [1], < 50 nM; at ROS1-wt kinase domain it was < 50 nM; in assay [2] it was < 50 nM; on TRKA-wt kinase domain, 50 to 500 nM.
Consider `Cc1cc2n(n1)-c1ccc(F)cc1[C@@H](C)Oc1cc(cnc1N)-c1c(c(C)nn1CC1CC1)C2` [Compound 141], for which the Ki at ALK-wt kinase domain was < 50 nM; in assay [1], < 50 nM; on ROS1-wt kinase domain, < 50 nM; in assay [2] it was < 50 nM; on TRKA-wt kinase domain it was 50 to 500 nM.
Take `C[C@H]1Oc2cc(cnc2N)-c2c(C#N)nn(C)c2Cc2csnc2-c2ccc(F)cc21` [Compound 143]: the Ki on ALK-wt kinase domain was < 50 nM; in assay [1], < 50 nM; at ROS1-wt kinase domain it was < 50 nM; in assay [2], < 50 nM; on TRKA-wt kinase domain, 50 to 500 nM.
Consider `COc1cc2n(n1)-c1ccc(F)cc1[C@@H](C)Oc1cc(cnc1N)-c1c(nnn1CC1CC1)C2` [Compound 144], for which the Ki is < 50 nM on ALK-wt kinase domain; < 50 nM in assay [1]; < 50 nM on ROS1-wt kinase domain; < 50 nM in assay [2]; 50 to 500 nM on TRKA-wt kinase domain.
Take `CCn1ncc2c1-c1cnc(N)c(c1)O[C@H](C)c1cc(F)ccc1-c1nc(OC)ccc1C2` [Compound 145]: the Ki is < 50 nM on ALK-wt kinase domain; < 50 nM in assay [1]; < 50 nM on ROS1-wt kinase domain; < 50 nM in assay [2]; 50 to 500 nM at TRKA-wt kinase domain.
As to `C[C@H]1Oc2cc(cnc2N)-c2c(CC3CC3)cnn2Cc2cccnc2-c2ccc(F)cc21` [Compound 146], the Ki at ALK-wt kinase domain is < 50 nM; in assay [1] it was < 50 nM; at ROS1-wt kinase domain it was < 50 nM; in assay [2], < 50 nM; at TRKA-wt kinase domain, 50 to 500 nM.
`CCn1nc(OC)c2c1-c1cnc(N)c(c1)O[C@H](C)c1cc(F)ccc1-n1nc(C(F)F)cc1C2` [Compound 147]: the Ki (on ALK-wt kinase domain; in assay [1]; on ROS1-wt kinase domain; in assay [2]; at TRKA-wt kinase domain) was < 50 nM throughout.
As for `CCn1nc(Br)c2c1-c1cnc(N)c(c1)O[C@H](C)c1cc(F)ccc1-c1nn(C)cc1C2` [Compound 148], the Ki was < 50 nM on ALK-wt kinase domain; < 50 nM in assay [1]; < 50 nM on ROS1-wt kinase domain; 50 to 500 nM in assay [2]; > 500 nM on TRKA-wt kinase domain.
Regarding `CCn1ncc2c1-c1cnc(N)c(c1)O[C@H](C)c1cc(F)ccc1-c1ncc(OC)cc1C2` [Compound 149], the Ki (on ALK-wt kinase domain; in assay [1]; at ROS1-wt kinase domain; in assay [2]; on TRKA-wt kinase domain) was < 50 nM in each case.
As to `CCn1ncc2c1-c1cnc(N)c(c1)O[C@H](C)c1cc(F)ccc1-c1nn(C(C)(C)C)cc1C2` [Compound 150], the Ki is < 50 nM on ALK-wt kinase domain; < 50 nM in assay [1]; < 50 nM at ROS1-wt kinase domain; < 50 nM in assay [2]; 50 to 500 nM on TRKA-wt kinase domain.
On to `CCn1ncc2c1-c1cnc(N)c(c1)O[C@H](C)c1cc(F)ccc1-c1nccc(OC)c1C2` [Compound 151], for which the Ki (on ALK-wt kinase domain; in assay [1]; on ROS1-wt kinase domain; in assay [2]; on TRKA-wt kinase domain) was < 50 nM throughout.
For the molecule `CCc1onc2c1-c1cnc(N)c(c1)O[C@H](C)c1cc(F)ccc1-c1nn(C)cc1C2` [Compound 152], the Ki (at ALK-wt kinase domain; in assay [1]; on ROS1-wt kinase domain; in assay [2]; at TRKA-wt kinase domain) was < 50 nM in each case.
